Data taken from patent US4304861A, “Process of producing antibiotic SM-173B with Streptomyces chromofuscus” (Hoffmann-La Roche Inc., priority 1977, dated 1981).
≈ marks a conversion by molar mass, not a printed value.

Key:
mycobacteria = assay: Antibiotic activity (summary of MIC table); format: cell-based
From the text: (§1) The antibacterial spectrum is evident from the following Table:
(§2) Minimum Inhibitory Concentration (MIC)
(§3) Test organism MIC (μg/ml)

gram-positive bacteria = assay: Antibiotic activity (summary of MIC table); format: cell-based; conditions: a large number of gram-positive bacteria
From the text: as §1, §2, §3

Micrococcus flavus = assay: Minimum Inhibitory Concentration (MIC), antibacterial spectrum; format: cell-based
From the text: as §1, §2, §3

Aspergillus niger = assay: as above; format: cell-based
From the text: as §1, §2, §3

[1] = test system: Staphylococcus aureus 209P; assay: as above; format: cell-based
From the text: as §1, §2, §3

Penicillium citrinum = assay: as above; format: cell-based
From the text: as §1, §2, §3

Bacillus cereus = assay: as above; format: cell-based
From the text: as §1, §2, §3

Mycobacterium avium = assay: as above; format: cell-based
From the text: as §1, §2, §3

Sarcina lutea = assay: as above; format: cell-based; conditions: Micrococcus luteus
From the text: as §1, §2, §3

[2] = test system: Mycobacterium rhodochrous; assay: as above; format: cell-based
From the text: as §1, §2, §3

Echerichia coli = assay: as above; format: cell-based
From the text: as §1, §2, §3

Bacillus subtilis = assay: as above; format: cell-based
From the text: as §1, §2, §3

Mycobacterium smegmatis = assay: as above; format: cell-based; conditions: Mycolicibacterium smegmatis
From the text: as §1, §2, §3

[3] = test system: Staphylococcus epidermidis; assay: as above; format: cell-based
From the text: as §1, §2, §3

[4] = Acidity (physico-chemical properties); format: physicochemical
Solubility = format: physicochemical
[5] = Toxicity, intraperitoneal administration to mice; conditions: mouse, in vivo, ip
Procedure: The LD50 is greater than 200 mg/kg in the case of intraperitoneal administration to mice.

COC1Cc2c(cc3c(c2O)C(=O)c2c(O)cccc2C3=O)C(=O)C1(C)O (stereo not drawn) [Antibiotic SM-173B]
antibiotic activity (mycobacteria): antibiotically active
antibiotic activity (gram-positive bacteria): antibiotically active
MIC (Micrococcus flavus): 6.25 µg/mL (≈ 17 µM)
MIC (Aspergillus niger): 100 µg/mL (≈ 271 µM)
MIC [1]: 6.25 µg/mL (≈ 17 µM)
MIC (Penicillium citrinum): 100 µg/mL (≈ 271 µM)
MIC (Bacillus cereus): 6.26 µg/mL (≈ 17 µM)
MIC (Mycobacterium avium): 6.25 µg/mL (≈ 17 µM)
MIC (Sarcina lutea): 12.5 µg/mL (≈ 33.9 µM)
MIC [2]: 3.13 µg/mL (≈ 8.5 µM)
MIC (Echerichia coli): 100 µg/mL (≈ 271 µM)
MIC (Bacillus subtilis): 6.25 µg/mL (≈ 17 µM)
MIC (Mycobacterium smegmatis): 3.13 µg/mL (≈ 8.5 µM)
MIC [3]: 3.13 µg/mL (≈ 8.5 µM)
acidity [4]: weakly acid
Solubility (Solubility; in methanol, ethanol, butanol, acetone, chloroform, ethyl acetate): Soluble
Solubility (Solubility; in n-hexane): poorly soluble
Solubility (Solubility; in petroleum ether): insoluble
Solubility (Solubility; in water): insoluble
Solubility (Solubility; in water under alkaline conditions): Soluble
LD50 [5]: > 200 mg/kg
